The test system of this assay is corneal endothelial cells. The assay can be described thus: Corneal endothelial cell counting by specular microscopy. Format: in vivo, rabbits. As to conditions: for higher cell density compared to negative control group / higher cell density compared to placebo group: 25 ng/mL (group B); for degeneration rate / effect on slowing down and stopping apoptosis and/or autophagy: 25 ng/mL. From the text:
All experiments were designed and carried out in a randomized, double blind manner using placebos. Rabbits were housed for one week prior to the study, fed on standard laboratory food and allowed free access to water in a room at standard temperature and humidity conditions in a 12-h light/12-h dark cycle.
Counting Corneal Cell number:
Any excess was discarded, and a fresh batch prepared for the next 15-days. Effects of the eye drop on corneal endothelium as well as cell numbers and shapes were observed by means of specular microscopy (NIDEK-CEM 530, Japan) at the end of months 0, 1, 3 and 6. Rabbits were euthanatized by an intravenous injection of Tanax (0.3 mL/kg). Vitreous (0.2 mL) was aspirated with a 25-gauge needle attached to a 5-mL disposable syringe, driven at 3.0 mm from the limbus, and guided toward the center of the eyeball, taking care to avoid bleeding when the needle was introduced (vitreous samples were stored at −80° C. until the analysis). Eye tissue was fixed with 4% formaldehyde and embedded in paraffin for histopathological assessment. The individual values for three replicates were determined and the mean values were reported.
All analyses were carried out using GraphPad Prism 5.0 (GraphPad Software, San Diego, Calif., USA). Differences were considered to be significant at a level of P 0.001.

The mark [1] stands for this setting: compared to the negative control group.

SMILES strings stand for the structures.

On to `CC(C)(O)[C@@H]1CC[C@](C)([C@H]2[C@@H](O)C[C@@]3(C)[C@@H]4C[C@H](O)[C@H]5C(C)(C)[C@@H](O)CC[C@@]56C[C@@]46CC[C@]23C)O1` [cycloastragenol, Cycloastragenol], for which the “higher cell density compared to negative control group” value is, setting by setting: (month 1) “about 4%”; (month 3) ~18%; (month 6) ~19%. Also, the “higher cell density compared to placebo group” value reads like this: (month 1) “about 4%”; (month 3) ~18%; (month 6) ~20%. Further, the degeneration rate stood at 0% under setting [1] and 0% (compared to the placebo group). Moreover, the “effect on slowing down and stopping apoptosis and/or autophagy” value by setting is: under setting [1], 100%; (compared to the placebo group) 100%.

(Values after patent publication US20210154210A1, “Ophthalmic Formulations and Uses Thereof” (priority 2018, published 2021).)
